# Earlier results in PubChem BioAssay AID1259409 (Chemical Carcinogenesis Research Information System (CCRIS), 2018).
# Tested on: rodent chemically induced tumor inhibition, incidence and multiplicity
# Test: CCRIS tumor inhibitor studies
# Conditions: Route [Inhibitor]: ORAL, Promoter: NONE USED
smiles,measurement,setting,value
CC1=C(/C=C/C(C)=C/C=C/C(C)=C/C(=O)NCCO)C(C)(C)CCC1,"tumour outcome (control, treated, inhibition, significance)","Carcinogen: N-(4-(5-NITRO-2-FURYL)-2-THIAZOLYL)FORMAMIDE, 24554-26-5, Dose [Inhibitor]: 686 MG/KG/D IN DIET FOR 39 WK STARTING 1 WK POST CARCINOGEN TREATMENT (STUDY DURATION: 50 WK), Species: RAT, Strain/Sex: F344/FEMALE, Target Tissue: Type of Lesion: URINARY BLADDER: CARCINOMA, Dose [Carcinogen]: 2 G/KG/D IN DIET FOR 10 WK","105/200 (53%), 49/100 (49%), 8%, p<0.5657"
same,"tumour outcome (control, treated, inhibition, significance)","Carcinogen: N-(4-(5-NITRO-2-FURYL)-2-THIAZOLYL)FORMAMIDE, 24554-26-5, Dose [Inhibitor]: 686 MG/KG/D IN DIET FOR 39 WK STARTING 1 WK POST CARCINOGEN TREATMENT (STUDY DURATION: 50 WK), Species: RAT, Strain/Sex: F344/FEMALE, Target Tissue: Type of Lesion: URINARY BLADDER: PAPILLOMA, Dose [Carcinogen]: 2 G/KG/D IN DIET FOR 10 WK","15/200 (7.5%), 17/100 (17%), -127%, p<0.012"
same,"tumour outcome (control, treated, inhibition, significance)","Carcinogen: N-BUTYL-N-(4-HYDROXYBUTYL)NITROSAMINE, 3817-11-6, Dose [Inhibitor]: 0.5 MMOL/KG DIET DAILY FOR 16 WK STARTING 7 D AFTER FINAL CARCINOGEN DOSE (STUDY DURATION: 6 MO), Species: MOUSE, Strain/Sex: B6D2F1/MALE, Target Tissue: Type of Lesion: URINARY BLADDER: CARCINOMA, Dose [Carcinogen]: 5 OR 10 MG 2/WK FOR 9 WK","36/97 (37%), 22/75 (29%), 22%, not significant"
same,"tumour outcome (control, treated, inhibition, significance)","Carcinogen: N-BUTYL-N-(4-HYDROXYBUTYL)NITROSAMINE, 3817-11-6, Dose [Inhibitor]: 1 MMOL/KG DIET DAILY FOR 16 WK STARTING 7 D AFTER FINAL CARCINOGEN DOSE (STUDY DURATION: 6 MO), Species: MOUSE, Strain/Sex: B6D2F1/MALE, Target Tissue: Type of Lesion: URINARY BLADDER: CARCINOMA, Dose [Carcinogen]: 5 OR 10 MG 2/WK FOR 9 WK","36/97 (37%), 17/77 (22%), 41%, p<0.025"
same,"tumour outcome (control, treated, inhibition, significance)","Carcinogen: N-BUTYL-N-(4-HYDROXYBUTYL)NITROSAMINE, 3817-11-6, Dose [Inhibitor]: 1 MMOL/KG DIET DAILY FOR 108 D STARTING ONE WK AFTER THE FINAL CARCINOGEN DOSE (STUDY DURATION: 171 D), Species: MOUSE, Strain/Sex: BDF1/MALE, Target Tissue: Type of Lesion: URINARY BLADDER: TRANSITIONAL CELL CARCINOMA, Dose [Carcinogen]: 5 MG 2/WK FOR 9 WK","31/55 (56%), 19/55 (35%), 38%, p<0.05"
same,"tumour outcome (control, treated, inhibition, significance)","Carcinogen: N-BUTYL-N-(4-HYDROXYBUTYL)NITROSAMINE, 3817-11-6, Dose [Inhibitor]: 1 MMOL/KG DIET DAILY FOR 159 D STARTING ONE WK AFTER THE FINAL CARCINOGEN DOSE (STUDY DURATION: 216 D), Species: MOUSE, Strain/Sex: BDF1/MALE, Target Tissue: Type of Lesion: URINARY BLADDER: TRANSITIONAL CELL CARCINOMA, Dose [Carcinogen]: 7.5 MG 1/WK FOR 8 WK","29/98 (30%), 14/95 (15%), 50%, p<0.05"
same,"tumour outcome (control, treated, inhibition, significance)","Carcinogen: N-BUTYL-N-(4-HYDROXYBUTYL)NITROSAMINE, 3817-11-6, Dose [Inhibitor]: 1.0 MMOL/KG/D IN DIET FOR 108 D STARTING 1 WK POST CARCINOGEN TREATMENT (STUDY DURATION: 171 D), Species: MOUSE, Strain/Sex: DBF1/MALE, Target Tissue: Type of Lesion: URINARY BLADDER: TRANSITIONAL CELL CARCINOMA, Dose [Carcinogen]: 5 MG 2/WK FOR 9 WK","31/55 (56%), 19/55 (35%), 38%, p<0.05"
same,"tumour outcome (control, treated, inhibition, significance)","Carcinogen: N-BUTYL-N-(4-HYDROXYBUTYL)NITROSAMINE, 3817-11-6, Dose [Inhibitor]: 1.0 MMOL/KG/D IN DIET FOR 159 D STARTING 1 WK POST CARCINOGEN TREATMENT (STUDY DURATION: 216 D), Species: MOUSE, Strain/Sex: DBF1/MALE, Target Tissue: Type of Lesion: URINARY BLADDER: TRANSITIONAL CELL CARCINOMA, Dose [Carcinogen]: 7.5 MG 1/WK FOR 8 WK","29/98 (30%), 14/95 (15%), 50%, p<0.05"
same,"tumour outcome (control, treated, inhibition, significance)","Carcinogen: N-BUTYL-N-(4-HYDROXYBUTYL)NITROSAMINE, 3817-11-6, Dose [Inhibitor]: 2 MMOL/KG DIET DAILY FOR 17 WK STARTING 7 D AFTER FINAL CARCINOGEN DOSE (STUDY DURATION: 6 MO), Species: RAT, Strain/Sex: F344/MALE, Target Tissue: Type of Lesion: URINARY BLADDER: TRANSITIONAL CELL CARCINOMA, Dose [Carcinogen]: 200 MG 2/WK FOR 8 WK","55/60 (92%), 19/30 (63%), 32%, p<0.01"
same,"tumour outcome (control, treated, inhibition, significance)","Carcinogen: N-BUTYL-N-(4-HYDROXYBUTYL)NITROSAMINE, 3817-11-6, Dose [Inhibitor]: 2 MMOL/KG DIET DAILY FOR 19 WK STARTING 7 D AFTER FINAL CARCINOGEN DOSE (STUDY DURATION: 6 MO), Species: RAT, Strain/Sex: F344/FEMALE, Target Tissue: Type of Lesion: URINARY BLADDER: TRANSITIONAL CELL CARCINOMA, Dose [Carcinogen]: 150 MG 2/WK FOR 6 WK","28/80 (35%), 5/40 (12%), 66%, p<0.01"
same,"tumour outcome (control, treated, inhibition, significance)","Carcinogen: N-METHYL-N-NITROSOUREA, 684-93-5, Dose [Inhibitor]: 2 MMOL/KG DIET DAILY STARTING 12 D AFTER CARCINOGEN TREATMENT THROUGH ABOUT 8 MO AFTER CARCINOGEN DOSE (STUDY DURATION:, Species: RAT, Strain/Sex: F344/MALE, Target Tissue: Type of Lesion: COLON: ADENOCARCINOMA, Dose [Carcinogen]: 2.5 MG 1/WK FOR 2 WK","5/39 (13%), 5/30 (17%), -31%, not significant"
